In patent US20240383915A1, “OXAZEPINE COMPOUNDS AND USES THEREOF IN THE TREATMENT OF CANCER” (Genentech, Inc., priority 2021, published 2024):

Columns and labels:
KRas = KRas (Homo sapiens (Human), UniProt P01116); experiment: KRas GDP HTRF (BODIPY-GDP exchange TR-FRET); format: biochemical
Summary of the method: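 Inhibition of SOS1-mediated exchange of BODIPY-GDP on KRAS G12D, started with 3 nM recombinant human SOS1 and 300 nM BODIPY-GDP and read after 60 min. TR-FRET excitation 337 nm, ratio 520/490 nm ×10,000. IC50 from 4-parameter Hill fit of normalized data.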

SW480 cells = experiment: SW480 proliferation assay; format: cell-based; conditions: Homo sapiens, SW480, SW480; read-out: SW480 Prolif IC50 (G12V)
PC-9 cells = experiment: PC9 proliferation assay; format: cell-based, human; conditions: Homo sapiens, PC-9, PC9; read-out: PC9 Prolif IC50 (G12V)
KRas(G12V) = KRas(G12V) (Homo sapiens (Human), UniProt P01116, G12V); experiment: KRas(G12V) GDP HTRF (BODIPY-GDP exchange TR-FRET); format: biochemical
Chain of KRas(G12V) (P01116-2 other isoform, or with tags, fused parts or gaps G12V): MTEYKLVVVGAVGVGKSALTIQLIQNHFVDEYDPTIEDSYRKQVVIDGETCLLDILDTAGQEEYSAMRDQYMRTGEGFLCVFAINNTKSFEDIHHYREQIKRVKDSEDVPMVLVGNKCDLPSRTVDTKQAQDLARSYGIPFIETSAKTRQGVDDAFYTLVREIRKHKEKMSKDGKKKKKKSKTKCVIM

Chain of KRas (P01116-2 other isoform, or with tags, fused parts or gaps): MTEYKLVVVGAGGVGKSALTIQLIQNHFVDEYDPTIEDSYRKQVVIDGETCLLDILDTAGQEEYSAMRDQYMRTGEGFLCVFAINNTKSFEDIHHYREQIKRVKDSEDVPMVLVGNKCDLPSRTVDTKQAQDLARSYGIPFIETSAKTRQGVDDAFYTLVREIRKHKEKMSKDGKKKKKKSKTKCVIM

| Structure (SMILES) | IC50 (KRas) [µM] | IC50 (SW480 cells) [µM] | IC50 (PC-9 cells) [µM] | IC50 (KRas(G12V)) [µM] |
| --- | --- | --- | --- | --- |
| Cc1cc(N)nc(-c2cc3ncnc4c3c(c2Cl)OCCN4Cc2cncnc2N)c1C(F)(F)F [Example 26, 5-((9-(6-amino-4-methyl-3-(trifluoromethyl)pyridin-2-yl)-8-chloro-5,6-dihydro-4H-[1,4]oxazepino[5,6,7-de]quinazolin-4-yl)methyl)pyrimidin-4-amine] | 0.33 | 9.7 | 16 | 0.053 |
| Cc1cc(N)nc(-c2cc3ncnc4c3c(c2Cl)OCCN4C(c2cccnc2N)C2CC2)c1C(F)(F)F (stereo not drawn) [Example 28, 6-(4-((2-aminopyridin-3-yl)(cyclopropyl)methyl)-8-chloro-5,6-dihydro-4H-[1,4]oxazepino[5,6,7-de]quinazolin-9-yl)-4-methyl-5-(trifluoromethyl)pyridin-2-amine] | 0.11 | 7.8 | 17 | 0.0082 |
| Cc1cc(N)nc(-c2cc3nc(OC[C@@]45CCCN4CC4(C5)OCCO4)nc4c3c(c2Cl)OCCN4Cc2cccnc2N)c1C(F)(F)F [Example 35, (S)-6-(4-((2-aminopyridin-3-yl)methyl)-8-chloro-2-((dihydro-1H,3H-spiro[pyrrolizine-2,2′-[1,3]dioxolan]-7a(5H)-yl)methoxy)-5,6-dihydro-4H-[1,4]oxazepino[5,6,7-de]quinazolin-9-yl)-4-methyl-5-(trifluoromethyl)pyridin-2-amine] | 0.00063 | 0.78 | 1.7 | 0.00039 |
| Cc1cc(N)cc(-c2cc3nc(OC[C@@]45CCCN4C[C@H](F)C5)nc4c3c(c2Cl)OCCN4C)c1C(F)(F)F [Example 39, 3-(8-chloro-2-(((2R,7aS)-2-fluorotetrahydro-1H-pyrrolizin-7a(5H)-yl)methoxy)-4-methyl-5,6-dihydro-4H-[1, 4]oxazepino[5,6,7-de]quinazolin-9-yl)-5-methyl-4-(trifluoromethyl)aniline] | 0.14 | 20 | 20 | 0.024 |
| C=C1CN2CCC[C@@]2(COc2nc3c4c(c(Cl)c(-c5nc(N)cc(C)c5C(F)(F)F)c(F)c4n2)OCCN3C)C1 [Example 40] | 0.0046 | 1.2 | 2.1 | 0.00099 |
| C=C1CN2CCC[C@@]2(COc2nc3c4c(c(Cl)c(-c5nc(N)cc(C)c5C(F)(F)F)cc4n2)OCCN3C)C1 [Example 44, (S)-6-(8-chloro-4-methyl-2-((2-methylenetetrahydro-1H-pyrrolizin-7a(5H)-yl)methoxy)-5,6-dihydro-4H-[1,4]oxazepino[5,6,7-de]quinazolin-9-yl)-4-methyl-5-(trifluoromethyl)pyridin-2-amine] | 0.017 | 4.1 | 4.8 | 0.0027 |
| Cc1cc(N)nc(-c2cc3nc(OC[C@@H]4C[C@@H](F)CN4C)nc4c3c(c2Cl)OCCN4Cc2cccnc2N)c1C(F)(F)F [Example 49, 6-(4-((2-aminopyridin-3-yl)methyl)-8-chloro-2-(((2S,4R)-4-fluoro-1-methylpyrrolidin-2-yl)methoxy)-5,6-dihydro-4H-[1,4]oxazepino[5,6,7-de]quinazolin-9-yl)-4-methyl-5-(trifluoromethyl)pyridin-2-amine] | 0.0038 | 1.1 | 3.8 | 0.00057 |
| Cc1cc(N)nc(-c2cc3ncnc4c3c(c2Cl)OCCN4CCn2ccccc2=O)c1C(F)(F)F [Example 51, 1-(2-(9-(6-amino-4-methyl-3-(trifluoromethyl)pyridin-2-yl)-8-chloro-5,6-dihydro-[1,4]oxazepino[5,6,7-de]quinazolin-4-yl)ethyl)pyridin-2(1H)-one] | 12 | 20 | 20 | 9.5 |
| C=C1CN2CCC[C@@]2(COc2nc3c4c(c(Cl)c(-c5cc(O)cc6ccccc56)cc4n2)OCCN3C)C1 [Example 59, (S)-4-(8-chloro-4-methyl-2-((2-methylenetetrahydro-1H-pyrrolizin-7a(5H)-yl)methoxy)-5,6-dihydro-4H-[1,4]oxazepino[5,6,7-de]quinazolin-9-yl)naphthalen-2-ol] | 0.27 | 7.1 | 5.8 | 0.057 |
